Reference: article PMC10028790 (bioRxiv, 2023)
Several values for one entry are separate records, joined by “and”; a condition that tells them apart may be missing. Identical values can stand only once. Entries after “also recorded” stand apart in the source; their conditions may differ. Like-named read-outs stand apart in the source and are kept apart here.

Key:
CB1R = details: cited from earlier work
GRABeCB2.0 [1] = molecular target: T1, GRABeCB2.0 (Homo sapiens, UniProt P21554); test: cell-based; details: for Effect on GRABeCB2.0 fluorescent signal: products of 2-AG hydrolysis
[2] = adult mice, intraperitoneal 5 mg/kg; ref 44;45; cited from earlier work
GRABeCB2.0 [3] = molecular target: T1, GRABeCB2.0; test: cell-based; format: cell-based
[4] = read-out: EC50, potency at CB1R
[5] = read-out: EC50 for activation of CB1Rs
[6] = applied at a concentration that approaches the EC50
[7] = concentration-dependent responses

Q: Which EC50 (CB1R; [4]) does the source give for `CCCCC/C=C\C/C=C\C/C=C\C/C=C\CCCC(=O)NCCO` [AEA, arachidonoyl ethanolamine] here?
A: 69 to 276 nM

Q: What about the EC50 (CB1R; [5]) of the same compound?
A: 10 to 100 nM

Q: With `OCC(O)CO` [glycerol] as the compound, how does the “Effect on GRABeCB2.0 fluorescent signal” value (GRABeCB2.0 [1]) read?
A: did not influence

Q: For `CCCCCc1cc(O)c2c(c1)OC(C)(C)[C@@H]1CCC(C)=C[C@@H]21` [Δ^9-THC, Δ^9-tetrahydrocannabinol], which “THC in mouse brain” value [2] is on record?
A: ≈ 10 ng/ml and 31.8 nM

Q: For `C=C(C)[C@@H]1CCC(C)=C[C@H]1c1c(O)cc(CCCCC)cc1O` [CBD, Cannabidiol], which “Effect on basal GRABeCB2.0 fluorescent signal” value (GRABeCB2.0 [1]; CBD 0.1 nM to 3 μM (legend: 100 pM-10 μM)) is on record?
A: did not affect; also recorded: does not modulate; also recorded: did not significantly modulate

Q: And the “Reduction of 2-AG-induced increase in GRABeCB2.0 fluorescent signal” value (GRABeCB2.0 [1]; at 1 μM)?
A: 26%

Q: With `CCCCC/C=C\C/C=C\C/C=C\C/C=C\CCCC(=O)O` [arachidonic acid] as the compound, how does the “Effect on GRABeCB2.0 fluorescent signal” value (GRABeCB2.0 [1]) read?
A: did not influence

Q: Which EC50 (CB1R; [4]) does the source give for `CCCCCCC(C)(C)c1ccc([C@@H]2C[C@H](O)CC[C@H]2CCCO)c(O)c1` [CP] here?
A: […]

Q: What about the “Antagonism response: t (decay following SR1 treatment)” value (GRABeCB2.0 [3]) of the same compound?
A: 24.3 s

Q: What about the “Decay of agonist response antagonized by SR1” value (GRABeCB2.0 [3]) of the same compound?
A: 24 s

Q: What about the “Initial response: slope” value (GRABeCB2.0 [3]) of the same compound?
A: 4.5 × 10^−2 DF/F0/sec

Q: And the “Maximal response: peak” value (GRABeCB2.0 [3])?
A: 1.7 DF/F0

Q: And the “Antagonism of agonist response by SR1 100 nM” value (“Antagonism … by SR1 100 nM” below) (GRABeCB2.0 [1])?
A: partial antagonized

Q: What about the “Antagonism of agonist response by SR1 300 nM” value (shortened to “Antagonism … by SR1 300 nM”) (GRABeCB2.0 [1]) of the same compound?
A: more than 80%

Q: What about the “Effect of SR1 pre-treatment on agonist-stimulated GRABeCB2.0 activation” value (“Effect of SR1 pre-treatment” below) (GRABeCB2.0 [1]) of the same compound?
A: significantly reduced

Q: What about the “Initial inflection time point” value (GRABeCB2.0 [1]) of the same compound?
A: ≤ 1.33 min

Q: What about the “Kinetics of fluorescent signal increase” value (GRABeCB2.0 [1]) of the same compound?
A: progressive increases in fluorescent signal that did not reach peak response within 5 min

Q: What about the “Maximal GRABeCB2.0 response as percent of the 2-AG response” value (GRABeCB2.0 [1]) of the same compound?
A: 71%

Q: With `CCCCC/C=C\C/C=C\C/C=C\C/C=C\CCCC(=O)OCC(O)CO` (stereo not drawn) [1-AG, 1-arachidonoylglycerol] as the compound, how does the EC50 (CB1R; read-out: EC50 at CB1R, ref 29;40;41) read?
A: 1000 to 1900 nM

Q: What about the “Antagonism … by SR1 100 nM” value (GRABeCB2.0 [1]) of the same compound?
A: strongly antagonized

Q: And the “Antagonism … by SR1 300 nM” value (GRABeCB2.0 [1])?
A: strongly antagonized

Q: And the EC50 (GRABeCB2.0 [1])?
A: 1800 nM

Q: What about the “Effect of SR1 pre-treatment” value (GRABeCB2.0 [1]) of the same compound?
A: reduced

Q: What about the “Initial inflection time point” value (GRABeCB2.0 [1]) of the same compound?
A: ≤ 1 min

Q: And the “Kinetics of fluorescent signal increase” value (GRABeCB2.0 [1])?
A: rapid increases in fluorescent signal that were followed by slow decays

Q: Which EC50 (CB1R; read-out: EC50, partial activation of CB1R, ref 11;12) does the source give for `CCCCC/C=C\C/C=C\CCCCCCCC(=O)OC(CO)CO` [2-LG, 2-linoleoylglycerol] here?
A: 16600 nM

Q: And the EC50 (CB1R; read-out: EC50 to activate CB1R, discussion, no reference given)?
A: ~25000 nM

Q: And the “Antagonism … by SR1 100 nM” value (GRABeCB2.0 [1])?
A: partial antagonized

Q: What about the EC50 (GRABeCB2.0 [1]) of the same compound?
A: 1500 nM

Q: What about the “Effect of SR1 pre-treatment” value (GRABeCB2.0 [1]) of the same compound?
A: reduced

Q: What about the “Kinetics of fluorescent signal increase” value (GRABeCB2.0 [1]; [6]) of the same compound?
A: rapid increases in fluorescent signal that were followed by slow decays

Q: And the “Initial inflection time point” value (GRABeCB2.0 [1]; [7])?
A: ≤ 1 min

Q: Which results are given for `CCCCC/C=C\C/C=C\C/C=C\C/C=C\CCCC(=O)OC(CO)CO` [2-AG, 2-arachidonoylglycerol]?
A: EC50 (CB1R; read-out: EC50, reported potency at CB1R): […]; EC50 (CB1R; [5]): […]; Antagonism response: t (decay following SR1 treatment) (GRABeCB2.0 [3]): 42.7 s; Decay of agonist response antagonized by SR1 (GRABeCB2.0 [3]): 43 s; Maximal response: peak (GRABeCB2.0 [3]; 2-AG 1 μM, AEA 10 μM, CP 1 μM): 2.5 DF/F0; Overall response (area under the curve) (GRABeCB2.0 [3]; 2-AG 1 μM, AEA 10 μM, CP 1 μM): 649; Emax (GRABeCB2.0 [3]; HEK293, read-out: Peak response greater than the CP maximal response): 47 to 58%; Initial response: slope (GRABeCB2.0 [3]; slope of fluorescent signal increase within first 20 sec after start of agonist, 2-AG 1 μM, AEA 10 μM, CP 1 μM): 6.6 × 10^−2 DF/F0/sec; Antagonism of agonist response by SR1 100 nM (GRABeCB2.0 [1]): partial antagonized; Effect of SR1 pre-treatment on agonist-stimulated GRABeCB2.0 activation (GRABeCB2.0 [1]): significantly reduced; GRABeCB2.0 fluorescent signal at 0 sec over basal (GRABeCB2.0 [1]; 2-AG 10 nM): 0.19 ΔF/F0; Initial inflection point (GRABeCB2.0 [1]; 2-AG 10 nM): 0.66 min; GRABeCB2.0 fluorescent signal at 0 sec over basal (GRABeCB2.0 [1]; 2-AG 100 nM): 0.96 ΔF/F0; Initial inflection point (GRABeCB2.0 [1]; 2-AG 100 nM): 0.33 min; Inflection point (GRABeCB2.0 [1]; 2-AG 3 μM (strongest response)): ≈ 0.66 min; Kinetics of fluorescent signal increase (GRABeCB2.0 [1]; [6]): rapid increases in fluorescent signal that were followed by slow decays

Q: Which “Antagonism … by SR1 100 nM” value (GRABeCB2.0 [1]) does the source give for `CCCCCCCC/C=C\CCCCCCCC(=O)OC(CO)CO` [2-OG, 2-oleoylglycerol] here?
A: strongly antagonized

Q: And the “Antagonism … by SR1 300 nM” value (GRABeCB2.0 [1])?
A: strongly antagonized

Q: And the EC50 (GRABeCB2.0 [1])?
A: 1000 nM

Q: What about the “Effect of SR1 pre-treatment” value (GRABeCB2.0 [1]) of the same compound?
A: reduced

Q: What about the “Kinetics of fluorescent signal increase” value (GRABeCB2.0 [1]; [6]) of the same compound?
A: rapid increases in fluorescent signal that were followed by slow decays

Q: And the “Initial inflection time point” value (GRABeCB2.0 [1]; [7])?
A: ≤ 1 min
